Source: patent US20240166639A1, “POTENT AND SELECTIVE COMPOUNDS AS SEROTONIN 1B RECEPTOR MODULATORS” (LEUKOS BIOTECH, S.L., priority 2020, published 2024)

Tests used:
[1] = target: human 5-HT1B receptor (Homo sapiens (Human), UniProt P28222); experiment: Competition binding in human 5-HT1B receptor; settings: [3H]-GR125743, Hela-5-HT1B membranes; read-out: h5-HT1B Ki
Experimental: Serotonin 5-HT1B receptor competition binding experiments were carried out in a polypropylene 96-well plate. In each well was incubated 5 μg of membranes from Hela-5-HT1B cell line prepared in the laboratory (Lot: A001/14-11-2011, protein concentration=3179 μg/ml), 1.5 nM [^3H]-GR125743 ([…], 0.1 mCi/ml, Perkin Elmer NET1172100UC) and compounds studied and standard. Non-specific binding was determined in the presence of GR55562 10 μM (TOCRIS 1054). The reaction mixture (Vt: 250 μl/well) was incubated at 25° C. for 90 min, 200 μL was transfered to GF/C 96-well plate (Millipore, Madrid, Spain) pretreated with 0.5% of PEI and treated with binding buffer (Tris-HCl 50 mM, EDTA 1 mM, MgCl2 10 mM, pH=7.4), after was filtered and washed four times with 250 μl wash buffer (Tris-HCl 50 mM, pH=7.4), before measuring in a microplate beta scintillation counter (Microbeta Trilux, PerkinElmer, Madrid, Spain). […] From the IC50 the Ki is calculated according to the following formula: […]
(§1) Being: • IC50: inhibitory concentration, • D: real concentration of radioligand and • Kd: dissociation constant (affinity of radioligand to the receptor).

[2] = Healthy blood cells viability assay; format: cell-based; settings: 48 h treatment, healthy peripheral blood mononuclear cells; read-out: EC50 (uM), cytotoxic capacity on healthy cells
Experimental: 0.5×10^6 peripheral blood-mononuclear blood cells per mL were cultured in completed RPM medium, supplemented with 10% FBS. Compounds were added to the medium at 0.5/1/5/10/50 μM, while controls were treated with equivalent concentration of vehicle (DMSO). Upon 48 h treatment, cells were stained with the live-dead discrimination dye 7-AAD and Hoechst 33342, the pan-hernatopoietic surface marker CD45, and acquired in a flow cytometer, with a volumetric counting. Live cells were discriminated based on a discrete FSC-SSC profile, 7-AAD negativity, dim positivity to Hoechst 33342 and CD45 positivity. EC50 was calculated with the Prism GraphPad software.

[3] = target: human 5-HT2A receptor (Homo sapiens (Human), UniProt P28223); experiment: Competition binding in human 5-HT2A receptor; settings: [3H]-Ketanserin, CHO-5-HT2A membranes; read-out: h5-HT2A Ki
Chain of human 5-HT2A receptor (P28223 whole entry): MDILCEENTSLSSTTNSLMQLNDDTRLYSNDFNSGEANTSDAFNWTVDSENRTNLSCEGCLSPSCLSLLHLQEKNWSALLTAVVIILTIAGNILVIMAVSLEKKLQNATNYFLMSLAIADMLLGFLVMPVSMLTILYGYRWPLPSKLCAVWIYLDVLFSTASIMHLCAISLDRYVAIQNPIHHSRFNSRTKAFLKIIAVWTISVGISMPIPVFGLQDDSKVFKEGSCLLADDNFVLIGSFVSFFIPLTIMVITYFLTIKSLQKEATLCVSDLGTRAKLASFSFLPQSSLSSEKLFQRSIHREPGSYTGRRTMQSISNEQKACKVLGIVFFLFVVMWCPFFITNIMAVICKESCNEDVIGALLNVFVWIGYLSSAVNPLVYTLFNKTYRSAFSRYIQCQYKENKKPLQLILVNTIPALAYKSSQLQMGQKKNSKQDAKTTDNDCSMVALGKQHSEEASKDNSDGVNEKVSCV
Experimental: Serotonin 5-HT2A receptor competition binding experiments were carried out in a polypropilene 96-well plate. In each well was incubated 80 μg of membranes from CHO-5-HT2A cell line prepared in the laboratory (protein concentration=4337 μg/ml), 1 nM [^3H]-Ketanserin (47.3 Ci/mmol, 1 mCi/ml, Perkin Elmer NET791250UC) and compounds studied and standard. Non-specific binding was determined in the presence of Methysergide 1 μM (Sigma M137). The reaction mixture (Vt: 250 μl/well) was incubated at 37° C. for 30 min, 200 μL was transfered to GF/B 96-well plate (Millipore, Madrid, Spain) pretreated with 0.5% of PEI and treated with binding buffer (Tris-HCl 50 mM, pH=7.4), after was filtered and washed six times with 250 μl wash buffer (Tris-HCl 50 mM, pH=6.6), before measuring in a microplate beta scintillation counter (Microbeta Trilux, PerkinElmer, Madrid, Spain).
The raw radioactivity data is adjusted to a logistic regression of 4 parameters using GraphPad Prism software, from the specific junction the value of IC50 is obtained. From the IC50 the Ki is calculated according to the following formula: […]
as §1

[4] = system: HL-60; experiment: Cell viability assay, AML cell line HL-60; format: cell-based; settings: 48 h treatment, live cells by flow cytometry
Experimental: (§2) 0.15×10^6 AML cell lines (HL-60 or MonoMac-1) per mL were cultured in completed RPMI medium, supplemented with 10% Fetal bovine serum (FBS). Compounds were added to the medium at the concentration indicated (0.1, 1 and 10 μM), while controls were treated with equivalent concentration of vehicle (DMSO). Primary validation screenings were analyzed after 72 h of treatment, EC50 was determined upon 48 h treatments. Cells were stained with the live-dead discrimination dye 7-aminoactinomycin D (7-AAD) and Hoechst 33342 and acquired in a flow cytometer, with a volumetric counting. Live cells were discriminated based on a discrete FSC-SSC profile, 7-AAD negativity and dim positivity to Hoechst 33342. EC50 was calculated with the Prism GraphPad software.

[5] = system: MonoMac-1; experiment: Cell viability assay, AML cell line MonoMac-1; format: cell-based; settings: 48 h treatment, live cells by flow cytometry
Experimental: as §2

[6] = system: human acute myeloid leukemia (AML) cells; settings: every 2 days for 14 days, apomorphine 5 mg/kg, methiothepin 0.1 mg/kg, cited from earlier work; for AML burden in bone marrow (BM): vs vehicle

Chain of human 5-HT1B receptor (P28222 whole entry): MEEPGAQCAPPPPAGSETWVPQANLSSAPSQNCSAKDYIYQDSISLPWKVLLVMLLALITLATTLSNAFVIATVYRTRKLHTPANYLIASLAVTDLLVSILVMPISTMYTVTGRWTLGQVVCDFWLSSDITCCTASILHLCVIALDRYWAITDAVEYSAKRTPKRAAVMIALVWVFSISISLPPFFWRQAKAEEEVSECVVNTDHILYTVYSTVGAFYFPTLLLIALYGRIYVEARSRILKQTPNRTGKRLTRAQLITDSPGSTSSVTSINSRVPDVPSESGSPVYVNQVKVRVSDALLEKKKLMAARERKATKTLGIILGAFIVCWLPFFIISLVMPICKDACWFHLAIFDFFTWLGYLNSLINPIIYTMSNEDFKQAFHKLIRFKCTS

Structure (SMILES) | Ki [1] | Ki [3] | EC50 ([4]; Homo sapiens, HL-60) | EC50 [4] | EC50 at 48 h [2] | EC50 ([5]; Mono-Mac-1) | EC50 [5] | clonogenic capacity of engrafted AML cells [6] | AML burden in bone marrow (BM) [6]
Cc1nc(-c2ccc(-c3ccc(C(=O)Nc4ccc(C#N)c(OCCN(C)C)n4)cn3)c(C3CC3)c2)no1 [Example 54, N-(5-cyano-6-(2-(dimethylamino)ethoxy)pyridin-2-yl)-6-(2-cyclopropyl-4-(5-methyl-1,2,4-oxadiazol-3-yl)phenyl)nicotinamide] | 0.0483 µM | > 10 µM | 1.07 µM |  |  | 1.04 µM |  |  | 
Cc1nc(-c2ccc(-c3ccc(C(=O)Nc4ccc(C#N)c(OCCN(C)C)c4)cn3)c(C3CC3)c2)no1 [Example 7, N-(4-cyano-3-(2-(dimethylamino)ethoxy)phenyl)-6-(2-cyclopropyl-4-(5-methyl-1,2,4-oxadiazol-3-yl)phenyl)nicotinamide] | 0.0097 µM | 2.5 µM | 0.65 µM |  | 50 µM | 0.79 µM |  |  | 
CN1CCc2cccc3c2[C@H]1Cc1ccc(O)c(O)c1-3 [Apomorphine, reference compound] | 1.76 µM | 0.00692 µM | 4.88 µM |  |  | 11.6 µM |  | impaired | significant reduction
COc1cc(-c2noc(C)n2)ccc1-c1ccc(C(=O)Nc2cc(OCCN(C)C)c(Br)cn2)cn1 [Example 43, N-(5-bromo-4-(2-(dimethylamino)ethoxy)pyridin-2-yl)-6-(2-methoxy-4-(5-methyl-1,2,4-oxadiazol-3-yl)phenyl)nicotinamide] | 0.0015 µM | 2 µM | 2.52 µM |  |  | 1.9 µM |  |  | 
CSc1ccc2c(c1)C(N1CCN(C)CC1)Cc1ccccc1S2 (stereo not drawn) [methiothepin] |  |  |  |  |  |  |  | impaired | significant reduction
Cc1nc(-c2ccc(-c3ccc(NC(=O)c4ccc(Br)c(OCCN(C)C)c4)cn3)c(F)c2)no1 [Example 65, 4-bromo-3-(2-(dimethylamino)ethoxy)-N-(6-(2-fluoro-4-(5-methyl-1,2,4-oxadiazol-3-yl)phenyl)pyridin-3-yl)benzamide] | 0.0005 µM | 1 µM | 0.93 µM |  |  | 1.33 µM |  |  | 
Cc1nc(-c2ccc(-c3ccc(C(=O)Nc4cc(OCCN(C)C)c(Br)cn4)cn3)c(F)c2)no1 [Example 40, N-(5-bromo-4-(2-(dimethylamino)ethoxy)pyridin-2-yl)-6-(2-fluoro-4-(5-methyl-1,2,4-oxadiazol-3-yl)phenyl)nicotinamide] | 0.0035 µM | 1.5 µM | 1.01 µM |  |  | 0.57 µM |  |  | 
Cc1nc(-c2ccc(-c3ccc(C(=O)Nc4cc(OCCN(C)C)c(Br)cn4)cn3)c(C(F)(F)F)c2)no1 [Example 42, N-(5-bromo-4-(2-(dimethylamino)ethoxy)pyridin-2-yl)-6-(4-(5-methyl-1,2,4-oxadiazol-3-yl)-2-(trifluoromethyl)phenyl)nicotinamide] | 0.002 µM | 3.5 µM |  |  |  |  |  |  | 
Cc1nc(-c2ccc(-c3ccc(C(=O)Nc4cc(OCCN(C)C)c(Br)cn4)cn3)c(Cl)c2)no1 [Example 41, N-(5-bromo-4-(2-(dimethylamino)ethoxy)pyridin-2-yl)-6-(2-chloro-4-(5-methyl-1,2,4-oxadiazol-3-yl)phenyl)nicotinamide] | 0.0003 µM | 1 µM |  |  |  |  |  |  | 

More lines, main results first:

Ki [1] | Ki [3] | EC50 ([4]; Homo sapiens, HL-60) | EC50 [4] | Structure (SMILES) | EC50 at 48 h [2] | EC50 ([5]; Mono-Mac-1) | EC50 [5] | clonogenic capacity of engrafted AML cells [6] | AML burden in bone marrow (BM) [6]
0.0165 µM | > 10 µM |  |  | Cc1nc(-c2ccc(-c3ccc(C(=O)Nc4ncc(C#N)c(OCCN(C)C)n4)cc3)c(Cl)c2)no1 [Example 38, 2′-chloro-N-(5-cyano-4-(2-(dimethylamino)ethoxy)pyrimidin-2-yl)-4′-(5-methyl-1,2,4-oxadiazol-3-yl)-[1,1′-biphenyl]-4-carboxamide] | 50 µM |  |  |  | 
 |  | 5.87 µM |  | Cc1nc(-c2ccc(-c3ccc(C(=O)Nc4ncc(C#N)c(OCCN(C)C)n4)cc3)c(C3CC3)c2)no1 [Example 36, N-(5-cyano-4-(2-(dimethylamino)ethoxy)pyrimidin-2-yl)-2′-cyclopropyl-4′-(5-methyl-1,2,4-oxadiazol-3-yl)-[1,1′-biphenyl]-4-carboxamide] | 25 µM | 7.37 µM |  |  | 
 |  | 3.45 µM |  | Cc1nc(-c2ccc(-c3ccc(C(=O)Nc4cc(OCCN(C)C)c(Br)cn4)cn3)c(C3CC3)c2)no1 [Example 39, N-(5-bromo-4-(2-(dimethylamino)ethoxy)pyridin-2-yl)-6-(2-cyclopropyl-4-(5-methyl-1,2,4-oxadiazol-3-yl)phenyl)nicotinamide] | 50 µM | 2.6 µM |  |  | 
0.126 µM | > 10 µM |  | 1.16 µM | COc1cc(-c2noc(C)n2)ccc1-c1ccc(C(=O)Nc2cc(OCCN(C)C)c(C#N)cn2)cn1 [Example 49, N-(5-cyano-4-(2-(dimethyiamino)ethoxy)pyridin-2-yl)-6-(2-methoxy-4-(5-methyl-1,2,4-oxadiazol-3-yl)phenyl)nicotinamide] |  |  | 4.17 µM |  | 
0.0063 µM | 3.5 µM | 3.66 µM |  | Cc1nc(-c2ccc(-c3ccc(C(=O)Nc4cc(OCCN(C)C)c(C#N)cn4)cc3)c(C3CC3)c2)no1 [Example 21, N-(5-cyano-4-(2-(dimethylamino)ethoxy)pyridin-2-yl)-2′-cyclopropyl-4′-(5-methyl-1,2,4-oxadiazol-3-yl)-[1,1′-biphenyl]-4-carboxamide] | > 50 µM | 3.32 µM |  |  | 
0.0097 µM | > 10 µM | 6.63 µM |  | Cc1nc(-c2ccc(-c3ccc(C(=O)Nc4cc(OCCN(C)C)c(C#N)cn4)cn3)c(Cl)c2)no1 [Example 47, 6-(2-chloro-4-(5-methyl-1,2,4-oxadiazol-3-yl)phenyl)-N-(5-cyano-4-(2 (dimethylamino)ethoxy)pyridin-2-yl)nicotinamide] | 25 µM | 4.12 µM |  |  | 
0.0079 µM | 3 µM | 0.97 µM |  | Cc1nc(-c2ccc(-c3ccc(C(=O)Nc4cc(OCCN(C)C)c(C#N)cn4)cc3)c(Cl)c2)no1 [Example 23, 2′-chloro-N-(5-cyano-4-(2-(dimethylamino)ethoxy)pyridin-2-yl)-4′-(5-methyl-1,2,4-oxadiazol-3-yl)-[1,1′-biphenyl]-4-carboxamide] | > 50 µM | 0.54 µM |  |  | 
0.0259 µM | > 10 µM | 1.76 µM |  | Cc1nc(-c2ccc(-c3ccc(C(=O)Nc4cc(OCCN(C)C)c(C#N)cn4)cn3)c(C3CC3)c2)no1 [Example 45, N-(5-cyano-4-(2-(dimethylamino)ethoxy)pyridin-2-yl)-6-(2-cyclopropyl-4-(5-methyl-1,2,4-oxadiazol-3-yl)phenyl)nicotinamide] | > 50 µM | 1.15 µM |  |  | 
